Values after ≈ are worked out from the molar mass of the structure shown. Where two headings read alike, the source gives them in different places.
Experiments:
human sperm = experiment: Reduction of sperm motility (RSM) high-throughput phenotypic assay; assay type: cell-based; settings: for EC50: Homo sapiens, reduction of progressive sperm motility relative to control
Protocol: Using our previously established phenotypic human sperm motility screening platform, we screened a large subset (62,621 compounds) of one of our in-house diversity libraries (National Phenotypic Screening Centre (NPSC) Diversity Set) (Figure A,B). Briefly, human sperm are collected, isolated from semen, distributed into 384-well plates with test compounds, time-lapse images of sperm movement are recorded using a high-content imager, and progressive motility parameters are calculated using custom data analysis software. Sperm motility is complicated, and the mechanisms underpinning its regulation are not fully understood. Progressive motility, which is a measurement of the movement of forward progression of sperm, is most closely linked to sperm quality, and the percentage of progressively motile sperm compared to control is therefore the parameter utilized during the work described in this paper. […]
We used an HTS screening platform to assess the motility of live human spermatozoa. The platform and its development are described in detail in Gruber et al. , and summarized below in brief. The platform was used to screen compound libraries specifically focusing on reduction in motility. Interesting compounds were examined in further detail as possible starting points for a medicinal chemistry program. The experimental design is illustrated in Figure .
Donors were local to the Dundee area, over the age of 18, and had no known fertility problems and normal sperm concentration, motility and semen characteristics according to WHO 2021 criteria. Special category personal data for donors, such as ethnic origin, was not recorded in accordance with ethical approval and UK GDPR. Samples were obtained by masturbation, after sexual abstinence of 2–5 days, and delivered to the research laboratory within one h of production. Samples were allowed to liquefy at 37 °C for 15–30 min prior to preparation by discontinuous density gradient centrifugation (DGC). […] A minimum of 3 prepared donor samples were routinely pooled to reduce donor-to-donor variability for primary screening assays. Pooled samples were incubated for 3 h at 37 °C under noncapacitating conditions.
In brief, screening batches of cells were transferred to a robotic platform (HighRes Biosolutions Inc.) and maintained during the screen at 37 °C at 5% CO2. Assay-ready 384-well plates containing compounds were prepared prior to the screen and filled with approximately 10,000 spermatozoa (20 μL) per well using a liquid handling system (MultiDrop Combi; ThermoFisher). These plates were incubated for 10 min prior to imaging. The HTS system utilized a Yokogawa CV7000 Cell Voyager high-throughput microscope to record time-lapse images from 2 positions in each well. An adaptation of a tracking algorithm, Trackpy v0.4.1 was utilized to track individual spermatozoa within each well and obtain kinematic parameters. Within the compound-test plates, DMSO was used as the vehicle control.
All steps were performed as previously described. , In summary, data from every compound well were normalized to those from in-plate DMSO controls (wells containing the same amount of DMSO as compound wells). Two positions were recorded in every well, and the average of those positions was used for calculating % of control (median value/DMSO median) × 100. Each plate contained 16 DMSO control wells. Median curvilinear velocity (VCL) was used as the primary readout for the NPSC Diversity Set screened at 6 μM, and percentage progressive motility (PM) was used for all other libraries screened. Hits from the primary screening were chosen based on the % change compared to the control. In these experiments, an RSM of ≥20% compared to negative controls (DMSO) was chosen as a cutoff for potential progression.
In a screening program of this scale, a significant number of compounds are likely to have a negative effect on sperm motility, but a number will show general toxicity. […]

HepG2 cells = experiment: HepG2 cytotoxicity assay (resazurin, 72 h); assay type: cell-based, human; settings: for EC50: Homo sapiens, HepG2, 72 h, read-out: HepG2 pEC50 (converted)
Text: Our overarching aims for investigating our chemical series and deciding which ones had the potential for further progression were to achieve adequate potency in our motility assay, suitable solubility, and minimal cytotoxicity in HepG2 cells. This third point was often the most challenging, as multiple series had cytotoxicity in HepG2 cells. This observation is perhaps not surprising; many potential targets in sperm cells can also be found in somatic cells. Our cytotoxicity assay is run with an incubation time of 72 h, to give time for gross cytotoxic effects to become apparent.
Compound dilution curves were plated directly using a Labcyte Echo 550 acoustic dispenser (125 nL) in 384-well white clear-bottom plates (Greiner). HepG2 cells (ATCCHepG2 HB-8065) were cultured in minimum essential medium (supplemented with glutamax) with 10% FCS and plated (25 μL) using a WellMate dispenser ([…]) and incubated for 72 h. Doxorubicin was used as a positive control drug. Resazurin was then added to each well at a final concentration of 45 μM, and fluorescence was measured using a PHERAstar LS (BMG Labtech) after 4 h of further incubation (excitation of 528 nm and emission of 590 nm). Raw data were normalized to controls and expressed as % growth.
Figure S2: Concentration-response curves from high throughput HepG2 viability assay. Each compound was tested in duplicate and the curves of each replicate are shown. The reported values in the tables are an average of the 2 pEC50 values obtained. […]
determine 0% effect, positive control used to determine 100% effect).
Hit compounds 1a, 6b and 7a were repurchased from commercial suppliers including enamine and […]

Aqueous solubility = assay type: physicochemical
[1] = 10 min, 10 min incubation, reported <X (neg. log of top concentration) if largest reduction <70%, read-out: RSM pEC50 10 mins (converted)
[2] = 3 h incubation, reported <X if largest reduction <70%, read-out: RSM pEC50 3 hrs (converted)
[3] = 6 h incubation, reported <X if largest reduction <70%, read-out: RSM pEC50 6 hrs (converted)

Row | SMILES | EC50 (human sperm; [1]) | EC50 (human sperm; [2]) | EC50 (human sperm; [3]) | increase in potency in the sperm motility assay (human sperm; after 6 h incubation, compared with hit 2a) | EC50 (HepG2 cells) | increase in cytotoxicity against HepG2 cells (HepG2 cells; compared with hit 2a) | solubility (Aqueous solubility) | difference between pEC50 in the sperm motility assay and pEC50 in the HepG2 cytotoxicity assay (human sperm)
1 | CN(c1ccccc1Nc1nc(Nc2ccc(CN3CCOCC3)cc2)ncc1Cl)S(C)(=O)=O [Compound 2d] | > 31.6 µM | 0.126 µM | 0.126 µM | 1 log-unit | 0.398 µM | 1 log | 64 µM (≈ 32.2 µg/mL) | –
2 | CS(=O)(=O)Nc1cc(F)ccc1Nc1nc(Nc2ccc(CN3CCNCC3)cc2)ncc1Cl [Compound 2e] | 3.98 µM | 2 µM | 1.58 µM | – | 15.8 µM | – | 27 µM (≈ 13.7 µg/mL) | –
3 | CS(=O)(=O)Nc1ccccc1Nc1nc(NC2CCOCC2)ncc1Cl [Compound 2f] | > 31.6 µM | > 31.6 µM | > 31.6 µM | – | 5.01 µM | – | 16 µM (≈ 6.37 µg/mL) | –
4 | O=C(Nc1nc(-c2ccccn2)cs1)Nc1ccc(F)cc1F [Compound 3b, 1-(2,4-Difluorophenyl)-3-(4-(pyridin-2-yl)thiazol-2-yl)urea] | > 31.6 µM | > 31.6 µM | 7.94 µM | – | 7.94 µM | – | 1.2 µM (≈ 0.399 µg/mL) | –
5 | O=C(Nc1nc(-c2ccccn2)cs1)c1ccccc1Cl [Compound 3c] | > 31.6 µM | > 31.6 µM | > 31.6 µM | – | > 100 µM | – | 100 µM (≈ 31.6 µg/mL) | –
6 | O=C(Nc1nc(-c2cccnc2)cs1)Nc1ccc(F)cc1F [Compound 3d] | > 31.6 µM | > 31.6 µM | > 31.6 µM | – | > 100 µM | – | 1.5 µM (≈ 0.499 µg/mL) | –
7 | O=C(Nc1nc(-c2ccccc2)cs1)Nc1ccc(F)cc1F [Compound 3e] | > 31.6 µM | > 31.6 µM | > 31.6 µM | – | 50.1 µM | – | 0.24 µM (≈ 0.0795 µg/mL) | –
8 | O=C(Nc1nc(-c2ccc(F)cc2F)cs1)Nc1ccc(F)cc1F [Compound 3f] | > 31.6 µM | > 31.6 µM | > 31.6 µM | – | > 100 µM | – | 0.29 µM (≈ 0.107 µg/mL) | –
9 | CC(C)c1csc(NC(=O)Nc2ccc(F)cc2F)n1 [Compound 3g] | > 31.6 µM | > 31.6 µM | > 31.6 µM | – | > 100 µM | – | 0.89 µM (≈ 0.265 µg/mL) | –
10 | O=C(Nc1nc(-c2ccccn2)cs1)NC1CCOCC1 [Compound 3i] | > 31.6 µM | > 31.6 µM | > 31.6 µM | – | > 100 µM | – | 220 µM (≈ 67 µg/mL) | –
11 | CC(C)NC(=O)Nc1nc(-c2ccccn2)cs1 [Compound 3j] | > 31.6 µM | > 31.6 µM | > 31.6 µM | – | > 100 µM | – | 140 µM (≈ 36.7 µg/mL) | –
12 | O=C(Nc1nc(-c2ccccn2)cs1)NC1CCNCC1 [Compound 3k] | > 31.6 µM | > 31.6 µM | > 31.6 µM | – | > 100 µM | – | 130 µM (≈ 39.4 µg/mL) | –
13 | CC(C)CNC(=O)Nc1nc(-c2ccccn2)cs1 [Compound 3l] | > 31.6 µM | > 31.6 µM | 7.94 µM | – | > 100 µM | – | 9.3 µM (≈ 2.57 µg/mL) | –
14 | Cc1sc(NC(=O)Nc2ccc(F)cc2F)nc1-c1ccccn1 [Compound 3m] | > 31.6 µM | 15.8 µM | 2 µM | – | 12.6 µM | – | 0.38 µM (≈ 0.132 µg/mL) | less than 1 log units
15 | CC(=O)Nc1nc2c(Cl)c(Cl)ccc2s1 [Compound 4a, N-(4,5-Dichlorobenzo[d]thiazol-2-yl)acetamide] | 12.6 µM | 5.01 µM | 3.98 µM | – | 50.1 µM | – | 200 µM (≈ 52.2 µg/mL) | ~1 log units
